The record followed here is patent US20250144442A1, “LIGHT-GUIDING ADHESIVE PATCH” (SAMSUNG LIFE PUBLIC WELFARE FOUNDATION, priority 2023, published 2025).

Structures are written as SMILES.

This data set deals with malignant glioma U87 cell line. Kind of data set: WST-1 cell viability assay for PDT anti-cancer effectiveness. Format: cell-based. The note with it: 50 μM Hypericin, 2 hours incubation at 37° C., U87 cells, no simultaneous light; FIG. 11a. How it is done:
To maximize light transmission, a 530±15 nm LED was used to verify the improvement in PDT efficiency with a developed light-guiding adhesive patch using the malignant glioma U87 cell line.
Specifically, the anti-cancer effectiveness through PDT was verified using the WST-1 cell viability assay. During the PDT efficiency verification, initial tests were conducted to establish PDT conditions, investigating the toxicity of the photosensitizer and light exposure.

In the case of `Cc1cc(O)c2c(=O)c3c(O)cc(O)c4c5c(O)cc(O)c6c(=O)c7c(O)cc(C)c8c1c2c(c34)c(c78)c65` [Hypericin], the “inhibition of cell viability (toxicity of the photosensitizer)” value is “No specific inhibition of cell viability”.
